These compounds were tested against SHP2 (Homo sapiens (Human), UniProt Q06124) (assay: SHP2 Allosteric Inhibition Assay). Details: 0.5 nM SHP2 activated with 0.5 μM peptide IRS1_pY1172(dPEG8)pY1222; surrogate substrate DiFMUP; prompt fluorescence.
Assay type: biochemical
Source text: SHP2 Allosteric Inhibition Assay
SHP2 is allosterically activated through binding of bis-tyrosyl-phorphorylated peptides to its Src Homology 2 (SH2) domains. The latter activation step leads to the release of the auto-inhibitory interface of SHP2, which in turn renders the SHP2 protein tyrosine phosphatase (PTP) active and available for substrate recognition and reaction catalysis. The catalytic activity of SHP2 was monitored using the surrogate substrate DiFMUP in a prompt fluorescence assay format.
After 30-60 minutes incubation at 25° C., the surrogate substrate DiFMUP (Invitrogen, cat #D6567) was added to the reaction and incubated at 25° C. for 30 minutes. […] The inhibitor dose response curves were analyzed using normalized IC50 regression curve fitting with control based normalization.

SMILES	IC50 [nM]
CC1(N)CCN(c2cnc(Sc3cccc(NC(=O)c4c(O)nc5ccccn5c4=O)c3Cl)c(N)n2)CC1 [Example 1, N-(3-((3-Amino-5-(4-amino-4-methylpiperidin-1-yl)pyrazin-2-yl)thio)-2-chlorophenyl)-2-hydroxy-4-oxo-4H-pyrido[1,2-a]pyrimidine-3-carboxamide]	6
CC1(CN)CCN(c2cnc(Sc3cccc(NC(=O)c4c(O)nc5ccccn5c4=O)c3Cl)c(N)n2)CC1 [Example 2, N-(3-((3-amino-5-(4-(aminomethyl)-4-methylpiperidin-1-yl)pyrazin-2-yl)thio)-2-chlorophenyl)-2-hydroxy-4-oxo-4H-pyrido[1,2-a]pyrimidine-3-carboxamide]	7
CC1(CN)CCN(c2cnc(Sc3cccc(NC(=O)c4c(O)nc5sccn5c4=O)c3Cl)c(N)n2)CC1 [Example 3, N-(3-((3-amino-5-(4-(aminomethyl)-4-methylpiperidin-1-yl)pyrazin-2-yl)thio)-2-chlorophenyl)-7-hydroxy-5-oxo-5H-thiazolo[3,2-a]pyrimidine-6-carboxamide]	6
Cn1c(=O)c(C(=O)Nc2cccc(Sc3ncc(N4CCC(C)(CN)CC4)nc3N)c2Cl)c(O)c2c(C3CC3)csc21 [Example 4, N-(3-((3-amino-5-(4-(aminomethyl)-4-methylpiperidin-1-yl)pyrazin-2-yl)thio)-2-chlorophenyl)-3-cyclopropyl-4-hydroxy-7-methyl-6-oxo-6,7-dihydrothieno[2,3-b]pyridine-5-carboxamide]	1030
CC1(CN)CCN(c2cnc(Sc3cccc(NC(=O)c4c(O)nc5cnccn5c4=O)c3Cl)c(N)n2)CC1 [Example 5, N-(3-((3-amino-5-(4-(aminomethyl)-4-methylpiperidin-1-yl)pyrazin-2-yl)thio)-2-chlorophenyl)-2-hydroxy-4-oxo-4H-pyrazino[1,2-a]pyrimidine-3-carboxamide]	3
CC1(CN)CCN(c2cnc(Sc3cccc(NC(=O)c4c(O)nc5[nH]ccn5c4=O)c3Cl)c(N)n2)CC1 [Example 6, N-(3-((3-amino-5-(4-(aminomethyl)-4-methylpiperidin-1-yl)pyrazin-2-yl)thio)-2-chloropheny1)-7-hydroxy-5-oxo-1,5-dihydroimidazo[1,2-a]pyrimidine-6-carboxamide]	5
CC1(CN)CCN(c2cnc(Sc3cccc(NC(=O)c4c(O)nc5n(c4=O)CCCC5)c3Cl)c(N)n2)CC1 [Example 7, N-(3-((3-amino-5-(4-(aminomethyl)-4-methylpiperidin-1-yl)pyrazin-2-yl)thio)-2-chlorophenyl)-2-hydroxy-4-oxo-6,7,8,9-tetrahydro-4H-pyrido[1,2-a]pyrimidine-3-carboxamide]	6
Cn1c(=O)c(C(=O)Nc2cccc(Sc3ncc(N4CCC(C)(CN)CC4)nc3N)c2Cl)c(O)c2ccccc21 [Example 8, N-(3-((3-amino-5-(4-(aminomethyl)-4-methylpiperidin-1-yl)pyrazin-2-yl)thio)-2-chlorophenyl)-4-hydroxy-1-methyl-2-oxo-1,2-dihydroquinoline-3-carboxamide]	44
CC1(CN)CCN(c2cnc(Sc3cccc(NC(=O)c4c(O)nc5n(c4=O)CCNC5)c3Cl)c(N)n2)CC1 [Example 9, N-(3-((3-amino-5-(4-(aminomethyl)-4-methylpiperidin-1-yl)pyrazin-2-yl)thio)-2-chlorophenyl)-2-hydroxy-4-oxo-6,7,8,9-tetrahydro-4H-pyrazino[1,2-a]pyrimidine-3-carboxamide]	7
NCC1(O)CCN(c2cnc(Sc3cccc(NC(=O)c4c(O)nc5ccccn5c4=O)c3Cl)c(N)n2)CC1 [Example 10, N-(3-((3-amino-5-(4-(aminomethyl)-4-hydroxypiperidin-1-yl)pyrazin-2-yl)thio)-2-chlorophenyl)-2-hydroxy-4-oxo-4H-pyrido[1,2-a]pyrimidine-3-carboxamide]	6
NCC1(O)CCN(c2cnc(Sc3cccc(NC(=O)c4c(O)nc5n(c4=O)CCCC5)c3Cl)c(N)n2)CC1 [Example 11, N-(3-((3-amino-5-(4-(aminomethyl)-4-hydroxypiperidin-1-yl)pyrazin-2-yl)thio)-2-chlorophenyl)-2-hydroxy-4-oxo-6,7,8,9-tetrahydro-4H-pyrido[1,2-a]pyrimidine-3-carboxamide]	12

The next lines start with the values.

IC50 [nM]	SMILES
260	N#CC1(CN)CCN(c2cnc(Sc3cccc(NC(=O)c4c(O)nc5n(c4=O)CCCC5)c3Cl)c(N)n2)CC1 [Example 12, N-(3-((3-amino-5-(4-(aminomethyl)-4-cyanopiperidin-1-yl)pyrazin-2-yl)thio)-2-chlorophenyl)-2-hydroxy-4-oxo-6,7,8,9-tetrahydro-4H-pyrido[1,2-a]pyrimidine-3-carboxamide]
4.6	Nc1nc(N2CCC(N)(CF)CC2)cnc1Sc1cccc(NC(=O)c2c(O)nc3ccccn3c2=O)c1Cl [Example 13, N-(3-((3-amino-5-(4-amino-4-(fluoromethyl)piperidin-1-yl)pyrazin-2-yl)thio)-2-chlorophenyl)-2-hydroxy-4-oxo-4H-pyrido[1,2-a]pyrimidine-3-carboxamide]
5.9	Nc1nc(N2CCC(N)(CF)CC2)cnc1Sc1cccc(NC(=O)c2c(O)nc3n(c2=O)CCCC3)c1Cl [Example 14, N-(3-((3-amino-5-(4-amino-4-(fluoromethyl)piperidin-1-yl)pyrazin-2-yl)thio)-2-chlorophenyl)-2-hydroxy-4-oxo-6,7,8,9-tetrahydro-4H-pyrido[1,2-a]pyrimidine-3-carboxamide]
10	NCC1(F)CCN(c2cnc(Sc3cccc(NC(=O)c4c(O)nc5ccccn5c4=O)c3Cl)c(N)n2)CC1 [Example 15, N-(3-((3-amino-5-(4-(aminomethyl)-4-fluoropiperidin-1-yl)pyrazin-2-yl)thio)-2-chlorophenyl)-2-hydroxy-4-oxo-4H-pyrido[1,2-a]pyrimidine-3-carboxamide]
8	NCC1(F)CCN(c2cnc(Sc3cccc(NC(=O)c4c(O)nc5n(c4=O)CCCC5)c3Cl)c(N)n2)CC1 [Example 16, N-(3-((3-amino-5-(4-(aminomethyl)-4-fluoropiperidin-1-yl)pyrazin-2-yl)thio)-2-chlorophenyl)-2-hydroxy-4-oxo-6,7,8,9-tetrahydro-4H-pyrido[1,2-a]pyrimidine-3-carboxamide]
13	NCC1CCN(c2cnc(Sc3cccc(NC(=O)c4c(O)nc5ccccn5c4=O)c3Cl)c(N)n2)C1 (stereo not shown) [Example 17]
789	Nc1nc(N2CCC(C(N)C(F)(F)F)C2)cnc1Sc1cccc(NC(=O)c2c(O)nc3ccccn3c2=O)c1Cl (stereo not shown) [Example 18, N-(3-((3-amino-5-(3-(1-amino-2,2,2-trifluoroethyl)pyrrolidin-1-yl)pyrazin-2-yl)thio)-2-chlorophenyl)-2-hydroxy-4-oxo-4H-pyrido[1,2-a]pyrimidine-3-carboxamide]
2190	Nc1nc(N2CCC(N)(C(F)(F)F)CC2)cnc1Sc1cccc(NC(=O)c2c(O)nc3ccccn3c2=O)c1Cl [Example 19, N-(3-((3-amino-5-(4-amino-4-(trifluoromethyl)piperidin-1-yl)pyrazin-2-yl)thio)-2-chlorophenyl)-2-hydroxy-4-oxo-4H-pyrido[1,2-a]pyrimidine-3-carboxamide]
5000	Nc1nc(N2CCC(N)(C(F)(F)F)CC2)cnc1Sc1cccc(NC(=O)c2c(O)nc3n(c2=O)CCCC3)c1Cl [Example 20, N-(3-((3-amino-5-(4-amino-4-(trifluoromethyl)piperidin-1-yl)pyrazin-2-yl)thio)-2-chlorophenyl)-2-hydroxy-4-oxo-6,7,8,9-tetrahydro-4H-pyrido[1,2-a]pyrimidine-3-carboxamide]
10	Nc1nc(N2CCC3(CC2)CCC(F)(F)[C@H]3N)cnc1Sc1cccc(NC(=O)c2c(O)nc3ccccn3c2=O)c1Cl [Example 22, (S)-N-(3-((3-amino-5-(1-amino-2,2-difluoro-8-azaspiro[4.5]decan-8-yl)pyrazin-2-yl)thio)-2-chlorophenyl)-2-hydroxy-4-oxo-4H-pyrido[1,2-a]pyrimidine-3-carboxamide]
5	Nc1nc(N2CCC3(CCC[C@H]3N)CC2)cnc1Sc1cccc(NC(=O)c2c(O)nc3ccccn3c2=O)c1Cl [Example 23, (R)-N-(3-((3-amino-5-(1-amino-8-azaspiro[4.5]decan-8-yl)pyrazin-2-yl)thio)-2-chlorophenyl)-2-hydroxy-4-oxo-4H-pyrido[1,2-a]pyrimidine-3-carboxamide]
1	Nc1nc(N2CCC3(CCC[C@H]3N)CC2)cnc1Sc1cccc(NC(=O)c2c(O)nc3n(c2=O)CCCC3)c1Cl [Example 24, (R)-N-(3-((3-amino-5-(1-amino-8-azaspiro[4.5]decan-8-yl)pyrazin-2-yl)thio)-2-chlorophenyl)-2-hydroxy-4-oxo-6,7,8,9-tetrahydro-4H-pyrido[1,2-a]pyrimidine-3-carboxamide]
80	Cc1oc(=O)oc1COC(=O)NCC1(C)CCN(c2cnc(Sc3cccc(NC(=O)c4c(O)nc5ccccn5c4=O)c3Cl)c(N)n2)CC1 [Example 25, (5-Methyl-2-oxo-1,3-dioxol-4-yl)methyl ((1-(6-amino-5-((2-chloro-3-(2-hydroxy-4-oxo-4H-pyrido[1,2-a]pyrimidine-3-carboxamido)phenyl)thio)pyrazin-2-yl)-4-methylpiperidin-4-yl)methyl)carbamate]
18	Nc1nc(N2CCC3(CC2)COC[C@H]3N)cnc1Sc1cccc(NC(=O)c2c(O)nc3n(c2=O)CCCC3)c1Cl [Example 26, (S)—N-(3-((3-Amino-5-(4-amino-2-oxa-8-azaspiro[4.5]decan-8-yl)pyrazin-2-yl)thio)-2-chlorophenyl)-2-hydroxy-4-oxo-6,7,8,9-tetrahydro-4H-pyrido[1,2-a]pyrimidine-3-carboxamide]

From US10934285B2, “Compounds and compositions for inhibiting the activity of SHP2” (Novartis AG, priority 2016, dated 2021)
